Experimental findings from PubChem BioAssay (NCI) are described below.

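Growth conditions: 96-well plates. Treatment: test compound, 48 hours, 5 concentrations. Analysis: linear interpolation between bracketing concentrations; unreached endpoints set to highest concentration. The concentration for full growth arrest is given as TGI.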

Test systems include SF-539 CNS; NCI-H23 lung; SR leukemia; PC-3 prostate; NCI-H226 lung; MOLT-4 leukemia; MDA-N; T-47D breast; UACC-257 melanoma; ACHN renal.
Common to all, as to test: NCI-60 cell line screen, 48 h

Consider `N#CC1(O)CCCCCCCCCCC1`, for which the TGI in the assay on SF-539 CNS, in the assay with NCI-H23 lung, with SR leukemia, in the assay with PC-3 prostate, in the assay with NCI-H226 lung and in the assay with MOLT-4 leukemia was > 100 µM throughout. Further, the TGI in the assay with MDA-N, in the assay with T-47D breast, with UACC-257 melanoma and in the assay on ACHN renal was > 100 µM throughout.

On to `CC1(C)OCC2OC3([C@@H]4OC(C)(C)O[C@H]4CO)OC(C)(C)OC3C2O1` (stereo not given in full), for which the TGI in the assay with SF-539 CNS, in the assay with NCI-H23 lung, in the assay on SR leukemia, in the assay with PC-3 prostate, in the assay on NCI-H226 lung and with MOLT-4 leukemia was > 100 µM each time. The TGI in the assay with MDA-N, in the assay on T-47D breast, in the assay on UACC-257 melanoma and in the assay on ACHN renal was > 100 µM each time.

Take `CCCCSc1nsc(N(C(=O)c2ccccc2)C(=O)c2ccccc2)n1`: the TGI in the assay with SF-539 CNS is 64.3 µM; in the assay on NCI-H23 lung it was > 100 µM; in the assay on SR leukemia, 48.3 µM; in the assay with PC-3 prostate, > 100 µM; in the assay on NCI-H226 lung, 93.9 µM; in the assay on MOLT-4 leukemia, 59.5 µM. The TGI in the assay on MDA-N is > 100 µM; in the assay on T-47D breast, > 100 µM; in the assay with UACC-257 melanoma it was 74.9 µM; in the assay with ACHN renal, > 100 µM.

In the case of `C=C1C(OC2O[C@@H]3O[C@@]4(C)CC[C@H]5[C@H](C)CC[C@@H](C2=C)[C@@]35O4)O[C@@H]2O[C@@]3(C)CC[C@H]4[C@H](C)CC[C@@H]1[C@@]24O3` (stereo not given in full), the TGI in the assay on SF-539 CNS, in the assay on NCI-H23 lung, in the assay with SR leukemia, in the assay with PC-3 prostate, in the assay with NCI-H226 lung and with MOLT-4 leukemia was > 50 µM throughout. The TGI in the assay with MDA-N, in the assay with T-47D breast, in the assay on UACC-257 melanoma and in the assay on ACHN renal was > 50 µM each time.

In the case of `COC(=O)Cc1ccc2c(cnn2-c2ccccc2)c1OC`, the TGI in the assay with SF-539 CNS, in the assay on NCI-H23 lung, in the assay with SR leukemia, in the assay on PC-3 prostate, in the assay on NCI-H226 lung and in the assay with MOLT-4 leukemia was > 10 µM throughout. The TGI with MDA-N, with T-47D breast, with UACC-257 melanoma and with ACHN renal was > 10 µM in each case.

For `COc1ccc(Nc2nc(N)c(C(=O)c3c[nH]c4ccccc34)s2)cc1`, the TGI with SF-539 CNS is > 36.9 µM; with NCI-H23 lung, > 95 µM; with SR leukemia it was 0.796 µM; in the assay on PC-3 prostate, > 100 µM; in the assay on NCI-H226 lung, 36.3 µM; in the assay on MOLT-4 leukemia, 20.9 µM. Besides, the TGI in the assay on MDA-N was 0.878 µM; in the assay on T-47D breast, > 88.3 µM; with UACC-257 melanoma, > 91.4 µM; in the assay with ACHN renal it was > 100 µM.

For `Cc1cc2c(O)c(c1)CN(CC(=O)O)Cc1cc(C)cc(c1O)CN(CC(=O)O)Cc1cc(C)cc(c1O)CN(CC(=O)O)C2`, the TGI in the assay on SF-539 CNS, in the assay with NCI-H23 lung, in the assay with SR leukemia, with PC-3 prostate, with NCI-H226 lung and in the assay with MOLT-4 leukemia was > 100 µM throughout. Further, the TGI in the assay with MDA-N, with T-47D breast, with UACC-257 melanoma and with ACHN renal was > 100 µM in each case.

Turning to `N#C/C(C(=O)Nc1ccc(Cl)cc1)=C(/N)N1CCCC1`, the TGI in the assay on SF-539 CNS, in the assay on NCI-H23 lung, in the assay with SR leukemia, in the assay on PC-3 prostate, in the assay with NCI-H226 lung and in the assay with MOLT-4 leukemia was > 100 µM throughout. Further, the TGI in the assay with MDA-N, with T-47D breast, in the assay on UACC-257 melanoma and with ACHN renal was > 100 µM each time.

With `Cc1[nH]c(=O)nc(NCCNCCO)c1C(=O)Nc1cccc2cc3ccccc3cc12`, the TGI in the assay on SF-539 CNS, in the assay with NCI-H23 lung, with SR leukemia, in the assay with PC-3 prostate, in the assay with NCI-H226 lung and with MOLT-4 leukemia was > 100 µM in each case. Moreover, the TGI with MDA-N, in the assay with T-47D breast, with UACC-257 melanoma and with ACHN renal was > 100 µM throughout.

Regarding `O=c1[nH]c2nc3ccccc3nc2[nH]c1=O`, the TGI with SF-539 CNS, with NCI-H23 lung, in the assay on SR leukemia, in the assay with PC-3 prostate, with NCI-H226 lung and in the assay on MOLT-4 leukemia was > 100 µM throughout. Also, the TGI in the assay with MDA-N, in the assay with T-47D breast, with UACC-257 melanoma and with ACHN renal was > 100 µM throughout.
